According to PMC8093080 (Biochemistry, 2020):

Biological target: T1, trp RNA-binding attenuation protein (TRAP) (Geobacillus stearothermophilus, UniProt Q9X6J6)
T1 sequence (Q9X6J6 1-74): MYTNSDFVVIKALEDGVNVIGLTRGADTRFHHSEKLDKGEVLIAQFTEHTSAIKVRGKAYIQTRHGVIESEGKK
Assay: ITC at […]°C in phosphate buffer

Kd: 115 ± 3 nM
SMILES: N[C@@H](Cc1c[nH]c2ccccc12)C(=O)O [Trp, tryptophan]
